Literature values, collected in patent publication US20070191365A1, “3,4,6-Substituted pyridazines for treating neuropathic pain and associated syndromes” (priority 2006, published 2007).

Test system: animal model of Alzheimer's disease
Settings: Ranaivo et al., J Neurosci. (2006) 26:662-670

## c1ccc(-c2cc(-c3ccccc3)c(N3CCN(c4ncccn4)CC3)nn2)cc1 [4,6-diphenyl-3-(4-(pyrimidin-2-yl)piperazin-1-yl)pyridazine]
  efficacy in an animal model of Alzheimer's disease: exhibits efficacy
